# Legend:
# [1] = system: H5N1 Avian influenza virus (A/VN/1203/04); experiment: microbe, parasite or virus in culture; assay type: cell-based
# [2] = system: MDBK cells; settings: bovine
# [3] = Influenza A virus, H5N1, MDBK, 72 h
smiles,measurement,setting,value
NC(=O)c1ncn([C@@H]2O[C@H](CO)[C@@H](O)[C@H]2O)n1 [Ribavirin],IC25,[1],1.01 µg/mL
same,IC50,"[1]; Influenza A virus, H5N1, MDBK",1.96 µg/mL
same,IC50,[1]; [3],1.69 µg/mL
same,IC90,[1]; [3],5.01 µg/mL
same,cytotoxicity profile (in words),[2],toxic at concentrations above that which protected 80% of cells from H5N1 infection

# Source: patent US20080292586A1 (priority 2005, published 2008)
